Data taken from article PMC12676205, “New Se‐Compounds With Antileishmanial, Antitumor, and Carbonic Anhydrase Inhibitory Properties” (Archiv Der Pharmazie, 2025).
Like-named read-outs stand apart in the source and are kept apart here.

Assays:
[1] = tested on: A498 renal‐resistant cells; test: NCI-60 five-dose assay, A498; assay type: cell-based; details: Homo sapiens, 48 h
Description: (§1) All the compounds were selected for further testing since they fulfilled the set NCI one‐dose screening parameters for threshold inhibition. They were tested at five different concentrations (0.01, 0.1, 1, 10, and 100 μM) for 48 h against the same cell line panel and the dose–response curves along with three response parameters (50% growth inhibitory concentration [GI50], the 50% lethal concentration [LC50], and the total growth inhibition [TGI]) were calculated for every cancer cell line. The full reported data and corresponding graphs are compiled in Supporting Information S1. Average values of GI50, TGI, and LC50 values of all the reported selenoesters in all the subpanels are represented in Figure 4.
(§2) All the reported selenoesters (1–6) were submitted to the DTP of NCI. First, they were screened at a single dose (10^−5 M) against a panel of 60 cancer cell lines derived from different tumor types following the methodology available (https://dtp.cancer.gov/discovery_development/nci-60/methodology.htm). As all the compounds satisfied the threshold inhibition criteria established, they were further assessed at five concentrations (0.01, 0.1, 1, 10, and 100 µM) against the same cell panel to obtain their corresponding dose–response curves and three antitumor parameters (GI50, TGI, and LC50) by regression. GraphPad Prism 7.0 Software was used to represent the corresponding graphs.

[2] = target: T1, hCA XII (Homo sapiens, UniProt O43570); test: hCA XII inhibition, stopped-flow CO2 hydration assay; assay type: biochemical; details: stopped flow technique, mean from three assays
T1 construct: made in house
Description: (§7) An Applied Photophysics stopped‐flow instrument was used to assay the CA‐catalyzed CO2 hydration activity [52]. […] The uncatalyzed rates were determined in the same manner and subtracted from the total observed rates. Stock solutions of the inhibitor (0.1 mM) were prepared in distilled–deionized water, and dilutions up to 0.01 nM were done thereafter with the assay buffer. Inhibitor and enzyme solutions were preincubated together for 15 min at room temperature before the assay, to allow for the formation of the E–I complex. The inhibition constants were obtained by Nonlinear least‐squares methods using PRISM 3 and the Cheng‐Prusoff equation as reported earlier and represent the mean from at least three different determinations. All CA isoforms were recombinant proteins obtained in‐house, as reported earlier [54, 55, 56].

[3] = target: T2, hCA II (Homo sapiens, UniProt P00918); test: hCA II inhibition, stopped-flow CO2 hydration assay; assay type: biochemical; details: stopped flow technique, mean from three assays
T2 construct: made in house
Description: as §7

[4] = tested on: Prostate subpanel; test: NCI-60 one-dose screen, prostate subpanel; assay type: cell-based, human; details: 10 µM, 48 h
Description: (§3) To explore the potential antiproliferative properties of the newly synthesized derivatives, they were submitted to the National Cancer Institute's (NCI) Developmental Therapeutics Program (DTP) for screening at 10 μM in a panel of approximately 60 human cancer cell lines from different cancer types. The results are reported as the growth percentage (GP), which is the growth of the treated cells with each compound for 48 h compared to the untreated controls (Figure 2). […] The initial screening results are summarized in Figure 2, and the mean GP values of each subpanel are depicted in Figure 3. The full reports are compiled in the Supplementary Section.
as §2

[5] = tested on: Melanoma subpanel; test: NCI-60 five-dose assay, melanoma subpanel; assay type: cell-based; details: Homo sapiens, 48 h; for GI50: read-out: Mean GI50 Melanoma; for LC50 (50% lethal concentration): read-out: Mean LC50 Melanoma
Description: as §1, §2

[6] = tested on: NCI‐60 human cancer cell lines; test: NCI-60 one-dose screen, whole panel; assay type: cell-based; details: 10 µM, 48 h, whole NCI-60 panel
Description: as §3, §2

[7] = tested on: Renal subpanel; test: NCI-60 five-dose assay, renal subpanel; assay type: cell-based; details: Homo sapiens, 48 h; for GI50: read-out: Mean GI50 Renal; for LC50: read-out: Mean LC50 Renal
Description: as §1, §2

[8] = tested on: L. major promastigotes; test: Leishmanicidal activity against promastigotes (MTT), L. major; assay type: cell-based, Leishmania major
Description: (§4) The synthesized compounds were tested for their antileishmanial activity against promastigotes of L. major and L. infantum at four concentrations (1, 10, 50, and 100 µM) for 48 h using the 3‐(4,5‐dimethylthiazol‐2‐yl)‐2,5‐diphenyltetrazolium bromide (MTT) assay. In this evaluation, the activity was expressed in IC50 (concentration inhibiting the parasite growth by 50%). […] The CC50 was defined as the concentration of selenoesters that led to a reduction in the viability of the macrophages, such that only 50% of the cells survived when compared to the control group. This cell line, derived from the blood of a human with acute monocytic leukemia, was chosen as it has been widely reported that it resembles tissue macrophages to various extents as well as supports the infection by numerous Leishmania promastigotes. The selectivity indexes (SIs) were calculated as the ratio between toxicity on macrophages (THP‐1 cells)/antileishmanial activity. The data for standard control drugs (miltefosine and paromomycin) are included for comparison purposes.
(§5) The promastigotes of L. major (clone VI, MHOM/IL/80/Friendlin) and L. infantum (BCN‐150) were grown at 26°C under continuous shaking in M199 1× medium (Sigma, USA). This media was supplemented with 10% of heat‐inactivated fetal bovine serum (FBS) (Gibco, USA), 0.0005% (w/v) hemin, 0.1 mM adenine, 25 mM HEPES (pH 7.2), 0.0001% (w/v) biotin, and 100 UI/mL penicillin and […] streptomycin (Gibco, USA).
(§6) The antileishmanial activity of the reported selenoesters was determined using the MTT assay as previously described during the logarithmic growth phase of the tested promastigotes of L. major and L. infantum. Briefly, the Leishmania parasites were seeded into 96‐well flat‐bottom plates (3 × 10^5 parasites/100 µL) and treated with four different concentrations ranging between 1 and 100 µM of each selenoester at 26°C for 48 h. Afterwards, 20 µL of MTT (5 mg/mL in PBS) was added to each well and incubated for 4 h under the same conditions. Then, 80 µL/well of DMSO was added to dissolve the resultant formazan crystals. The absorbances were determined on a Multiskan EX photometric plate reader for microplates at 540 nm. Three independent experiments performed in triplicate were carried out for each compound, and OriginPro 8.5.1 Software was used to calculate the IC50 values by fitting the data to a dose–inhibition sigmoid curve.

[9] = tested on: L. infantum promastigotes; test: Leishmanicidal activity against promastigotes (MTT), L. infantum; assay type: cell-based, Leishmania infantum
Description: as §4, §5, §6

[10] = tested on: HCC‐2998‐resistant colon cancer cells; test: NCI-60 one-dose screen, HCC-2998; assay type: cell-based, human; details: 10 µM, 48 h
Description: as §3, §2

[11] = tested on: NSCL (non‐small‐cell lung cancer) subpanel; test: NCI-60 five-dose assay, NSCL subpanel; assay type: cell-based; details: Homo sapiens, 48 h; for GI50: read-out: Mean GI50 NSCL; for LC50 (50% lethal concentration): read-out: Mean LC50 NSCL
Description: as §1, §2

[12] = tested on: Prostate subpanel; test: NCI-60 five-dose assay, prostate subpanel; assay type: cell-based, human; details: 48 h; for GI50 / CC50: Homo sapiens; for GI50: read-out: Mean GI50 Prostate; for CC50: read-out: Mean LC50 Prostate
Description: as §1, §2

[13] = tested on: breast cancer cell line HS 578 T; test: NCI-60 five-dose assay, HS 578 T; assay type: cell-based, human; details: 48 h; for GI50: Homo sapiens, Hs-578T
Description: as §1, §2

[14] = tested on: CNS subpanel; test: NCI-60 five-dose assay, CNS subpanel; assay type: cell-based; details: Homo sapiens, 48 h; for GI50: read-out: Mean GI50 CNS; for LC50: read-out: Mean LC50 CNS
Description: as §1, §2

[15] = tested on: Ovarian subpanel; test: NCI-60 five-dose assay, ovarian subpanel; assay type: cell-based; details: Homo sapiens, 48 h; for GI50: read-out: Mean GI50 Ovarian; for LC50 (50% lethal concentration): read-out: Mean LC50 Ovarian
Description: as §1, §2

[16] = tested on: CNS subpanel; test: NCI-60 one-dose screen, CNS subpanel; assay type: cell-based, human; details: 10 µM, 48 h
Description: as §3, §2

[17] = Leishmania major, 48 h, mean ± SD, read-out: L. major IC50
[18] = Leishmania infantum, 48 h, mean ± SD, read-out: L. infantum IC50
[19] = 48 h, mean ± SD, read-out: L. major IC50
[20] = read-out: L. major IC50, 48 h, mean ± SD
[21] = 48 h, mean ± SD, read-out: L. infantum IC50
[22] = read-out: L. infantum IC50, 48 h, mean ± SD

T1 sequence (O43570 25-354): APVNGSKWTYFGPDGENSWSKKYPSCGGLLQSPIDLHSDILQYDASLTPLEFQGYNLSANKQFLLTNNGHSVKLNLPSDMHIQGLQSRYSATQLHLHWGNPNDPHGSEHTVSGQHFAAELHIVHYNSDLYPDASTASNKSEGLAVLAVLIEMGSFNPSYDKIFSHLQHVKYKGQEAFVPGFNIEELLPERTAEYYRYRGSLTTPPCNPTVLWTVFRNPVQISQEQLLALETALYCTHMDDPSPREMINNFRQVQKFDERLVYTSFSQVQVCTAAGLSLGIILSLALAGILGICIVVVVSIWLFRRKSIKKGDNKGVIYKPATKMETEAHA

Row | SMILES | Ki [2] | Ki [3] | average growth cell value, Prostate [4] | GI50 [5] | LC50 (50% lethal concentration) [5] | mean GP (growth percentage) [6] | GI50 [7] | LC50 [7] | IC50 [8, 17] | IC50 [9, 18] | behaviour in HCC‐2998 [10] | GI50 [11] | LC50 (50% lethal concentration) [11] | GI50 [12] | CC50 [12] | GI50 [14] | LC50 [14] | GI50 [15] | LC50 (50% lethal concentration) [15] | average growth cell value, CNS [16] | also measured
1 | N#Cc1ccc(NC(=O)C[Se]C(=O)c2ccccc2)cc1C(F)(F)F [Compound 1, Se‐(2‐((4‐cyano‐3‐(trifluoromethyl)phenyl)amino)‐2‐oxoethyl)benzoselenoate] | 51.1 µM | 80.4 µM | -95.47% | 1.36 µM | 5.49 µM | −94.16% | 1.57 µM | 6.11 µM | 26.6 ± 1.81 µM | 29.2 ± 2.65 µM | susceptible | 1.54 µM | 5.61 µM | 1.54 µM | 5.91 µM | 1.37 µM | 5.64 µM | 1.77 µM | 6.4 µM | -94.57% | GI50 [1]: 0.89 µM; GI50 [13]: 0.64 µM
2 | O=C(C[Se]C(=O)c1ccccc1)Nc1ccc([N+](=O)[O-])c(C(F)(F)F)c1 [Compound 2, Se‐(2‐((4‐nitro‐3‐(trifluoromethyl)phenyl)amino)‐2‐oxoethyl)benzoselenoate] | 91.5 µM | 50.4 µM | -94.40% | 1.24 µM | 5.37 µM | −91.96% | 1.38 µM | 5.2 µM | 27.1 ± 3.35 µM | 29.4 ± 2.1 µM | susceptible | 1.41 µM | 5.36 µM | 1.44 µM | 5.66 µM | 1.17 µM | 5.17 µM | 1.57 µM | 5.83 µM | -94.42% | GI50 [1]: 0.8 µM; TGI HS 578 T [13]: 0.89 µM; GI50 [13]: 0.28 µM
3 | O=C(C[Se]C(=O)c1ccccc1)Nc1cccc(OC(F)(F)F)c1 [Compound 3, Se‐(2‐oxo‐2‐((3‐(trifluoromethoxy)phenyl)amino)ethyl)benzoselenoate] | 17.4 µM | 82.4 µM | -48.28% | 2.33 µM | 13.6 µM | −43.99% | 2.33 µM | 15.4 µM | 6 to 10 µM | 6 to 10 µM |  | 2.3 µM | 13.2 µM | 2.16 µM | 12.6 µM | 2.07 µM | 9 µM | 2.45 µM | 18.2 µM | -78.56% | IC50 [8, 19]: 9.67 ± 0.78 µM; IC50 [8, 20]: < 10 µM; IC50 [9, 21]: 6.59 ± 3.73 µM; IC50 [9, 22]: < 10 µM
4 | O=C(C[Se]C(=O)c1ccco1)Nc1ccc([N+](=O)[O-])c(C(F)(F)F)c1 [Compound 5, Se‐(2‐((4‐nitro‐3‐(trifluoromethyl)phenyl)amino)‐2‐oxoethyl)furan‐2‐carboselenoate] | 72.6 µM | 83.3 µM | -27.89% | 1.7 µM |  |  | 2.2 µM |  | 18.3 ± 5.9 µM | 32.9 ± 8.25 µM | susceptible | 1.9 µM |  | 1.85 µM | 54.4 µM | 2.04 µM |  | 2.28 µM |  | -59.61% | 
5 | O=C(C[Se]C(=O)c1ccco1)Nc1cccc(OC(F)(F)F)c1 [Compound 6, Se‐(2‐oxo‐2‐((3‐(trifluoromethoxy)phenyl)amino)ethyl)furan‐2‐carboselenoate] | 9.6 µM | 8.2 µM | -15.23% | 4.95 µM |  |  | 5.62 µM |  | 6 to 10 µM | 6 to 10 µM |  | 3.64 µM |  | 5.38 µM | 100 µM | 3.08 µM |  | 8.37 µM |  | -34.28% | IC50 [8, 19]: 10.1 ± 1.27 µM; IC50 [8, 20]: < 10 µM; IC50 [9, 21]: 5.99 ± 2.33 µM; IC50 [9, 22]: < 10 µM; cytotoxic activity (LC50) in the prostate cancer subpanel ([12]; five-dose): devoid of activity
